According to US9296745B2, “Diacylglycerol acyltransferase 2 inhibitors” (Pfizer Inc., priority 2012, dated 2016):

Target: Human DGAT2 (hDGAT2) (Homo sapiens (Human), UniProt Q96PD7)
Experiment: In vitro DGAT2 assay, IC50 determination with hDGAT2 membrane fraction
Type: biochemical
Conditions: geometric mean; background for complete inhibition of DGAT2 obtained with 50 μM (1R,2R)-2-({3′-Fluoro-4′-[(6-fluoro-1,3-benzothiazol-2-yl)amino]-1,1′-biphenyl-4-yl}carbonyl)cyclopentanecarboxylic acid; read-out: DGAT2 IC50
Method: Recombinant baculovirus for the FLAG-tagged hDGAT2 was generated in SF9 insect cells using Bac-to-Bac baculovirus expression system (Invitrogen) according to the manufacturer's protocol. For the expression of hDGAT2, SF9 cells (20 L) grown in Sf900II media were infected with hDGAT2 baculovirus at a multiplicity of infection of 1 in a Wave Bioreactor System 20/50P wave bag (GE Healthcare). After 40 hours of infection, the cells were then harvested by centrifugation at 5,000×g. The cell pellets were washed by resuspending in phosphate buffered saline (PBS) and collected by centrifugation at 5,000×g. The cell paste was flash frozen in liquid N2 and stored at −80° C. until needed. All operations below were at 4° C. unless otherwise noted. The cells were resuspended in lysis buffer (50 mM Tris-HCl, pH 8.0, 250 mM sucrose) including 1 mM ethylenediaminetetraacetic acid (EDTA) and the complete protease inhibitor cocktail (Roche Diagnostics) at a ratio of 3 ml buffer per 1 g cell paste. The cells were lysed by dounce homogenizer. The cell debris was removed by centrifugation at 1,000×g for 20 min, and the supernatant was centrifuged at 100,000×g for 1 hour. The resulting pellet was rinsed three times by filling ultracentrifuge tubes to the top with ice cold PBS before decanting. The washed pellet was resuspended with gentle stirring for 1 hour in lysis buffer containing 8 mM 3-[(3-cholamidopropyl)dimethylammonio]-1-propanesulfonate (CHAPS) at a ratio of 1 mL buffer per 1 g of original cell paste and centrifuged again at 100,000×g for 1 hour. The resulting supernatant (hDGAT2 membrane fraction) was aliquotted, flash frozen in liquid N2, and stored at −80° C. until use.
To 1 μL of compounds dissolved in 100% DMSO and spotted at the bottom of each well, 5 μL of 0.04% bovine serum albumin (BSA) (fatty acid free, Sigma Aldrich) was added and the mixture was incubated at room temperature for 20 minutes. To this mixture, 10 μL of hDGAT2 membrane fraction (0.01 mg/mL) diluted in 100 mM Hepes-NaOH, pH 7.4, 20 mM MgCl2 containing 200 nM methyl arachidonyl fluorophosphonate (Cayman Chemical; dried from ethyl acetate stock solution under argon gas and dissolved in DMSO as 5 mM stock) was added. […] The reaction mixtures were incubated at room temperature for 40 min and the reactions were stopped by addition of 5 μL of 1% H3PO4. After the addition of 45 μL MicroScint-E (Perkin-Elmer), plates were sealed with Top Seal-A covers (Perkin-Elmer) and phase partitioning of substrates and products was achieved using a HT-91100 microplate orbital shaker (Big Bear Automation, Santa Clara, Calif.). Plates were centrifuged at 2,000×g for 1 min in an Allegra 6R Centrifuge (Beckman Coulter) and then were sealed again with fresh covers before reading in a 1450 Microbeta Wallac Trilux Scintillation Counter (Perkin Elmer). DGAT2 activity was measured by quantifying the generated product [^14C]tridecanoylglycerol in the upper organic phase.
Inhibitors were tested at eleven different concentrations to generate IC50 values for each compound. […] Results are reported as geometric mean IC50 values.

Human DGAT2 (hDGAT2), sequence (Q96PD7 whole entry): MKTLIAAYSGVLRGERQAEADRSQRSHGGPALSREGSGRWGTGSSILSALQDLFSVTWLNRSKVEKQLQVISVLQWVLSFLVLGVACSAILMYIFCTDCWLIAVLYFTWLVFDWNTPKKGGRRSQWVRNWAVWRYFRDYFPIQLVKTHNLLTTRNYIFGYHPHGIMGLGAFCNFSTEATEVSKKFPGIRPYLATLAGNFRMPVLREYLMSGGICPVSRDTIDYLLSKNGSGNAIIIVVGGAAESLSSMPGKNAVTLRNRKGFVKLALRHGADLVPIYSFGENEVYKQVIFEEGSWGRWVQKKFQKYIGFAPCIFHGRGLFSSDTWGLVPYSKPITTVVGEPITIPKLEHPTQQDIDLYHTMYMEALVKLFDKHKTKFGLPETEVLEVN

| Structure (SMILES) | IC50 [nM] |
| --- | --- |
| c1cc(-c2nc3ccc(N4CCCC(c5nnc6n5CCC6)C4)nc3[nH]2)nc(C2CC2)c1 (racemic) [Example 169, 2-(6-Cyclopropylpyridin-2-yl)-5-(3-(6,7-dihydro-5H-pyrrolo[2,1-c][1,2,4]triazol-3-yl)piperidin-1-yl)-3H-imidazo[4,5-b]pyridine] | 292 |
| CC(C)COC(=O)N1CCCC(c2nc3ccc(N4CCC[C@@H](C(=O)N5CCCC5)C4)nc3[nH]2)C1 (stereo in doubt) [Example 61, (R)-iso-Butyl 3-(5-(3-(pyrrolidine-1-carbonyl)piperidin-1-yl)-3H-imidazo[4,5-b]pyridine-2-yl)piperidine-1-carboxylate] | 86.4 |
| O=C([C@@H]1CCCN(c2ccc3nc(-c4cccc(OC(F)(F)F)c4)[nH]c3n2)C1)N1CCCC1 [Example 1, (R)-Pyrrolidin-1-yl(1-(2-(3-(trifluoromethoxy)phenyl)-3H-imidazo[4,5-b]pyridin-5-yl)piperidin-3-yl)methanone] | 1.7 |
| O=C([C@@H]1CCCN(c2ccc3nc(-c4cccc(-n5cccn5)c4)[nH]c3n2)C1)N1CCCC1 [Example 3, (R)-(1-(2-(3-(1H-Pyrazol-1-yl)phenyl)-3H-imidazo[4,5-b]pyridin-5-yl)piperidin-3-yl)(pyrrolidin-1-yl)methanone] | 4.82 |
| O=C([C@@H]1CCCN(c2ccc3nc(-c4cccc(-c5cnco5)c4)[nH]c3n2)C1)N1CCCC1 [Example 6, (R)-(1-(2-(3-(Oxazol-5-yl)phenyl)-3H-imidazo[4,5-b]pyridin-5-yl)piperidin-3-yl)(pyrrolidin-1-yl)methanone] | 11.5 |
| CNS(=O)(=O)c1cccc(-c2nc3ccc(N4CCC[C@@H](C(=O)N5CCCC5)C4)nc3[nH]2)c1 [Example 8, (R)-N-Methyl-3-(5-(3-(pyrrolidine-1-carbonyl)piperidin-1-yl)-3H-imidazo[4,5-b]pyridin-2-yl)benzenesulfonamide] | 21.1 |
| O=C([C@@H]1CCCN(c2ccc3nc(-c4cnn(-c5ccccc5)c4)[nH]c3n2)C1)N1CCCC1 [Example 9, (R)-(1-(2-(1-Phenyl-1H-pyrazol-4-yl)-3H-imidazo[4,5-b]pyridin-5-yl)piperidin-3-yl)(pyrrolidin-1-yl)methanone] | 22.1 |
| O=C([C@@H]1CCCN(c2ccc3nc(-c4ccnc(N5CCCC5)n4)[nH]c3n2)C1)N1CCCC1 [Example 10, (R)-Pyrrolidin-1-yl(1-(2-(2-(pyrrolidin-1-yl)pyrimidin-4-yl)-3H-imidazo[4,5-b]pyridin-5-yl)piperidin-3-yl)methanone] | 29.2 |
| O=C([C@@H]1CCCN(c2ccc3nc(-c4cccc5ccnn45)[nH]c3n2)C1)N1CCCC1 [Example 12, (R)-(1-(2-(Pyrazolo[1,5-a]pyridin-7-yl)-3H-imidazo[4,5-b]pyridin-5-yl)piperidin-3-yl)(pyrrolidin-1-yl)methanone] | 54.7 |
| N#Cc1ccc(-c2nc3ccc(N4CCC[C@@H](C(=O)N5CCCC5)C4)nc3[nH]2)cc1 [Example 13, (R)-4-(5-(3-(Pyrrolidine-1-carbonyl)piperidin-1-yl)-3H-imidazo[4,5-b]pyridin-2-yl)benzonitrile] | 63.6 |
| O=C([C@@H]1CCCN(c2ccc3nc(-c4ccnc(NC5CC5)n4)[nH]c3n2)C1)N1CCCC1 [Example 15, (R)-(1-(2-(2-(Cyclopropylamino)pyrimidin-4-yl)-3H-imidazo[4,5-b]pyridin-5-yl)piperidin-3-yl)(pyrrolidin-1-yl)methanone] | 89.6 |
| O=C([C@@H]1CCCN(c2ccc3nc([C@H]4C[C@H]4c4ccccc4)[nH]c3n2)C1)N1CCCC1 [Example 18, ((R)-1-(2-((1S,2R)-2-Phenylcyclopropyl)-3H-imidazo[4,5-b]pyridin-5-yl)piperidin-3-yl)(pyrrolidin-1-yl)methanone] | 196 |
| O=C([C@@H]1CCCN(c2ccc3nc(-c4ccc5nccn5c4)[nH]c3n2)C1)N1CCCC1 [Example 19, (R)-(1-(2-(Imidazo[1,2-a]pyridin-6-yl)-3H-imidazo[4,5-b]pyridin-5-yl)piperidin-3-yl)(pyrrolidin-1-yl)methanone] | 208 |
| CC(C)(c1ccccc1)c1nc2ccc(N3CCC[C@@H](C(=O)N4CCCC4)C3)nc2[nH]1 [Example 22, (R)-(1-(2-(2-Phenylpropan-2-yl)-3H-imidazo[4,5-b]pyridin-5-yl)piperidin-3-yl)(pyrrolidin-1-yl)methanone] | 357 |
| CC(C)c1cccc(-c2nc3ccc(N4CCC[C@@H](C(=O)N5CCCC5)C4)nc3[nH]2)c1O [Example 23, (R)-(1-(2-(2-Hydroxy-3-isopropylphenyl)-3H-imidazo[4,5-b]pyridin-5-yl)piperidin-3-yl)(pyrrolidin-1-yl)methanone] | 432 |
| CC(C)(C)c1nc2ccc(N3CCC[C@@H](C(=O)N4CCCC4)C3)nc2[nH]1 [Example 24, (R)-(1-(2-tert-Butyl-3H-imidazo[4,5-b]pyridin-5-yl)piperidin-3-yl)(pyrrolidin-1-yl)methanone] | 731 |

Further lines, results first:

| IC50 [nM] | Structure (SMILES) |
| --- | --- |
| 2.71 | CC(C)Cc1csc(-c2nc3ccc(N4CCC[C@@H](C(=O)N5CCCC5)C4)nc3[nH]2)n1 [Example 2, (R)-(1-(2-(4-Isobutylthiazol-2-yl)-3H-imidazo[4,5-b]pyridin-5-yl)piperidin-3-yl)(pyrrolidin-1-yl)methanone] |
| 6.64 | CC(C)c1csc(-c2nc3ccc(N4CCC[C@@H](C(=O)N5CCCC5)C4)nc3[nH]2)n1 [Example 4, (R)-(1-(2-(4-Isopropylthiazol-2-yl)-3H-imidazo[4,5-b]pyridin-5-yl)piperidin-3-yl)(pyrrolidin-1-yl)methanone] |
| 8.24 | Cc1cccc(-c2nc3ccc(N4CCC[C@@H](C(=O)N5CCCC5)C4)nc3[nH]2)c1 [Example 5, (R)-Pyrrolidin-1-yl(1-(2-m-tolyl-3H-imidazo[4,5-b]pyridin-5-yl)piperidin-3-yl)methanone] |
| 16.3 | O=C([C@@H]1CCCN(c2ccc3nc(-c4cncc(Cl)c4)[nH]c3n2)C1)N1CCCC1 [Example 7, (R)-(1-(2-(5-Chloropyridin-3-yl)-3H-imidazo[4,5-b]pyridin-5-yl)piperidin-3-yl)(pyrrolidin-1-yl)methanone] |
| 35 | Cc1csc(-c2nc3ccc(N4CCC[C@@H](C(=O)N5CCCC5)C4)nc3[nH]2)n1 [Example 11, (R)-(1-(2-(4-Methylthiazol-2-yl)-3H-imidazo[4,5-b]pyridin-5-yl)piperidin-3-yl)(pyrrolidin-1-yl)methanone] |
| 72.8 | CC(C)(O)c1cc(-c2nc3ccc(N4CCC[C@@H](C(=O)N5CCCC5)C4)nc3[nH]2)ccn1 [Example 14, (R)-(1-(2-(2-(2-Hydroxypropan-2-yl)pyridin-4-yl)-3H-imidazo[4,5-b]pyridin-5-yl)piperidin-3-yl)(pyrrolidin-1-yl)methanone] |
| 102 | N#Cc1cncc(-c2nc3ccc(N4CCC[C@@H](C(=O)N5CCCC5)C4)nc3[nH]2)c1 [Example 16, (R)-5-(5-(3-(Pyrrolidine-1-carbonyl)piperidin-1-yl)-3H-imidazo[4,5-b]pyridin-2-yl)nicotinonitrile] |
| 118 | Cc1nc(-c2nc3ccc(N4CCC[C@@H](C(=O)N5CCCC5)C4)nc3[nH]2)cs1 [Example 17, (R)-(1-(2-(2-Methylthiazol-4-yl)-3H-imidazo[4,5-b]pyridin-5-yl)piperidin-3-yl)(pyrrolidin-1-yl)methanone] |
| 221 | Cn1cc(Cl)c(-c2nc3ccc(N4CCC[C@@H](C(=O)N5CCCC5)C4)nc3[nH]2)n1 [Example 20, (R)-(1-(2-(4-Chloro-1-methyl-1H-pyrazol-3-yl)-3H-imidazo[4,5-b]pyridin-5-yl)piperidin-3-yl)(pyrrolidin-1-yl)methanone] |
| 346 | O=C([C@@H]1CCCN(c2ccc3nc(-c4ccccc4F)[nH]c3n2)C1)N1CCCC1 [Example 21, (R)-(1-(2-(2-Fluorophenyl)-3H-imidazo[4,5-b]pyridin-5-yl)piperidin-3-yl)(pyrrolidin-1-yl)methanone] |
